Assay results from article PMC5238392, “Origin of anti-tumor activity of the cysteine-containing GO peptides and further optimization of their cytotoxic properties” (Scientific Reports, 2017).

Columns and labels:
Type in all cases: cell-based, human
ZR-75-1 cell line = assay: H2DCFDA intracellular ROS measurement, ZR-75-1; details: 10 μM, 30 min incubation, control 100 ± 11, mean and SD, below statistical significance
Procedure: (§1) Having established these premises, we repeated the measurements using the ROS-sensitive probe H2DCFDA instead of DCFDA. We have observed small, but statistically significant difference between the HT-1080 cells treated by GO-203 and control cells. Specifically, 30 min after application of the peptide the fluorescence signal from the treated cells was ca. 20% lower than the control, 82 ± 6 vs. 100 ± 7 (arbitrary units). The drop in fluorescence from cells that have been treated with GO-203 should be unequivocally attributed to the decreased level of ROS. The effect is small and unlikely to be the source of GO-203 cytotoxic activity. […] The detected drop in ROS level was below the level of statistical significance, 98 ± 3 vs. 100 ± 11 (see Fig. S3). […]
(§2) The cells were seeded into 35-mm Nunc culture dishes (Thermo Scientific, USA) at 1.2 × 10^5 cells per dish and allowed to attach for 24 h. […] After that GO-203 was added directly to the suspension and cell fluorescence was measured by flow cytometry at multiple time points during the following 2 hours. […] Cell fluorescence was then immediately measured by flow cytometry. […]
(§3) Cell fluorescence was measured using CytoFLEX (Beckman Coulter, USA) flow cytometer equipped with 3 lasers (405, 488 and 633 nm). […] Mean fluorescence intensity from 10,000 cells was acquired. […]

ZR-75-1 cells = assay: Caspase 3/7 activation assay (CellEvent / SYTOX), ZR-75-1; details: 10 μM, 4 h, Fig. 4D
From the text: A complementary perspective on GO-203-induced apoptosis is provided by the caspase 3/7 activation assay, Fig. 4. In both HT-1080 and ZR-75-1, the data offer a clear view of the early and late apoptotic populations. The time dependence illustrated in Fig. 4E,F confirms that the onset of apoptosis occurs sufficiently rapidly in both cell lines – by the time of flow-cytometry observations the system has already approached the steady state. In the literature there is some evidence that activation of executioner caspases may precede the translocation of phosphatidylserine to the outer leaf of the membrane. While this could be in principle relevant for comparison between the Annexin V assay and caspase activation assay, one should bear in mind that in our case both assays offer a snapshot of a fairly advanced apoptotic process.
Figure 4 GO-203-induced apoptosis in HT-1080 and ZR-75-1 cells as assessed by the double staining with CellEvent caspase-3/7 green detection reagent and vital dye SYTOX. (A–D) Flow cytometry histograms for the cells incubated for 4 h with 10 μM of GO-203 and the untreated (control) cells. (E–G) Apoptotic fractions in the GO-203-treated and untreated (control) cells as a function of incubation time and GO-203 concentration. TEXT PRINTED IN THE PICTURE: (B) GO-203: HT-1080: IV.(0.11 %); HT-1080: III.(64.49 %); HT-1080: I.(12.21 %); HT-1080: II.(23.20 %) | (D) GO-203: ZR-75-1: IV.(0.40 %); ZR-75-1: III.(35.18 %); ZR-75-1: I.(28.95 %); ZR-75-1: II.(35.47 %)
The adherent cells were rinsed with PBS, harvested using trypsin-EDTA solution and suspended in the growth medium. To analyze cell cycle phase distribution, 200 μg/ml of saponin (Fluka, USA), 250 μg/ml RNase A, and 50 μg/ml of propidium iodide (both Sigma-Aldrich, USA) were added to each sample tube, thus obtaining DNA stain buffer. After 1 h incubation at room temperature, the samples were analyzed by flow cytometry. To detect apoptosis by flow cytometry, CellEvent Caspase-3/7 Green Flow Cytometry Assay Kit (Thermo Fisher Scientific, USA) and Annexin-V FITC conjugate (BD Biosciences, USA) in combination with propidium iodide have been employed following the manufacturer’s protocols.
Cell fluorescence was measured using CytoFLEX (Beckman Coulter, USA) flow cytometer equipped with 3 lasers (405, 488 and 633 nm). Cells were gated on FSC/SSC to remove debris. Mean fluorescence intensity from 10,000 cells was acquired.

HT-1080 cells = assay: H2DCFDA intracellular ROS measurement, HT-1080; details: 5 μM, 30 min after application
Procedure: as §1, §2, §3

## [R]9CQCRRKN [GO-203, in clinical trials]
ZR-75-1 cell line
  H2DCFDA fluorescence signal (ROS level): 98 ± 3 arbitrary units
ZR-75-1 cells
  quadrant I fraction (caspase-3/7 / SYTOX): 28.95%
  quadrant II fraction (caspase-3/7 / SYTOX): 35.47%
  quadrant III fraction (caspase-3/7 / SYTOX): 35.18%
  quadrant IV fraction (caspase-3/7 / SYTOX): 0.40%
HT-1080 cells
  Decrease of H2DCFDA fluorescence signal versus control: ca. 20%
HT-1080 cells; control 100 ± 7, mean and SD
  H2DCFDA fluorescence signal (ROS level): 82 ± 6 arbitrary units
